Patent US4835162A (priority 1987, dated 1989)
Entries after “also recorded” stand apart in the source; their conditions may differ. Where two headings read alike, the source gives them in different places.

Columns and labels:
[1] = system: rats; assay: animal or person; settings: Rattus norvegicus, ip, 7 min, read-out: % Antagonism (seizures)
[2] = system: rats; settings: rat, in vivo
[3] = system: rats; settings: rat, in vivo; remark: listed apart in the source
[4] = biological target: nicotinic receptors (rat brain membranes); format: binding; settings: read-out: 3H-Nicotine Binding IC50
[5] = system: rats; set-up: species or system Sprague-Dawley male rats; Blockade of (nicotine-induced prostration) EC50: unit not given here; settings: rat, in vivo
[6] = biological target: nicotinic receptors (rat brain membranes); settings: read-out: 3H-MCC Binding IC50
[7] = system: rats; assay: animal or person; settings: Rattus norvegicus, iv, read-out: Antagonistic dose needed to completely block elevation in systolic blood pressure
[8] = system: rats; settings: rat, in vivo; remark: listed apart in the source
[9] = system: nicotinic receptors (rat brain membranes); format: binding
[10] = system: nicotinic receptors (rat brain membranes); format: binding; remark: listed apart in the source
[11] = system: rats; settings: rat, in vivo; remark: listed apart in the source
[12] = biological target: nicotinic receptors (rat brain membranes); format: binding; settings: for IC50: pH 7, read-out: [3H]-nicotine IC50; for Kd: read-out: Kd value in competition binding

Compound: C[N+](C)(C)CCOC(=O)C1CCCCC1 [TMAE cyclohexylcarboxylate, choline ester of cyclohexylcarboxylic acid]
- responders at 25 mg/kg [1]: 78%
- % Antagonism (protection against nicotine mortality) [2]: 66%
- Seizures [3]: 1/8
- blockade of seizure activity [3]: 78%
- IC50 [4]: 80 nM
- Blockade of (nicotine-induced prostration) EC50 [5]: 10
- IC50 [6]: 50 nM

Compound: C[N+](C)(C)CCOC(=O)Cc1ccccc1 [TMAE phenylacetate]
- IC50 [4]: 2000 nM
- Blockade of (nicotine-induced prostration) EC50 [5]: 100
- blockade of nicotine-induced prostration / antagonism, in words [5]: next in effectiveness and of comparable activity
- IC50 [6]: 300 nM

Compound: C[N+](C)(C)CCOC(=O)Nc1ccccc1 [TMAE phenylcarbamate]
- responders at 25 mg/kg [1]: 89%
- % Antagonism (protection against nicotine mortality) [2]: 50%
- Mortality [2]: 4/10
- Seizures [3]: 1/9
- protection against seizures, in words [3]: almost complete protection
- ED100 [7]: 5 ± 1 mg/kg
- IC50 [4]: 6000 nM
- Blockade of (nicotine-induced prostration) EC50 [5]: 200
- blockade of nicotine-induced prostration / antagonism, in words [5]: next in effectiveness and of comparable activity
- IC50 [6]: 800 nM

Compound: C[N+](C)(C)CCOC(=S)Nc1ccccc1 [TMAE phenylthiocarbamate]
- % Antagonism (protection against nicotine mortality) [2]: 63%
- Mortality [2]: 3/10
- ED100 [7]: 4 ± 0.8 mg/kg
- IC50 [4]: 500 nM
- Blockade of (nicotine-induced prostration) EC50 [5]: 50
- blockade of nicotine-induced prostration / antagonism, in words [5]: next in effectiveness and of comparable activity
- IC50 [6]: 500 nM

Compound: C[N+](C)(C)CCOC(=O)CCC(=O)OCC[N+](C)(C)C [TMAE succinate, succinylcholine]
- Prostration EC50 [8]: 50

Compound: [3H]C([3H])([3H])[N+](C)(C)CCOC(=O)NC [[^3 H]-MCC, [^3 H]-methylcarbamyl choline]
- displaceability of [3H]-MCC binding by muscarinic antagonists [9]: not [^3 H]-MCC binding, is displaceable by low concentrations of muscarinic antagonists; also recorded: not displaceable by muscarinic cholinergic antagonists
- Bmax of [3H]-MCC binding [10]: 4.0×10^-14 moles/mg protein
- Scatchard Kd and Bmax with unlabeled (-)-nicotine replacing MCC, in words [10]: comparable Kd and Bmax values
- rate constant for association, [3H]-MCC ([10]; brain membranes, pH 7): 300000 M⁻¹ s⁻¹
- rate constant for dissociation, [3H]-MCC ([10]; brain membranes, pH 7): 0.001 s⁻¹
- Kd ([10]; read-out: Kd (Hill binding constant) of [3H]-MCC): 0.9 nM
- Kd ([10]; read-out: Kd from rate constants, [3H]-MCC): 3.3 nM
- Kd ([10]; read-out: Kd, Scatchard analysis of [3H]-MCC binding): 1.1 nM

Compound: CC(=O)OCC[N+](C)(C)C [acetylcholine]
- Prostration EC50 [8]: 300
- psychotropic action (prostration), in words [11]: inactive

Compound: CN1[C@@H]2CC[C@H]1C[C@@H](OC(=O)C(CO)c1ccccc1)C2 (stereo partly shown) [atropine, reference compound]
- responders at 25 mg/kg [1]: 0%
- protection against nicotine mortality, in words [2]: ineffective
- Seizures [3]: 6/6
- blockade of nicotine-induced prostration / antagonism, in words [5]: inactive

Compound: C[N+](C)(C)CCOC(N)=O [carbamylcholine]
- Prostration EC50 [8]: 100

Compound: O=c1cccc2n1C[C@@H]1CNC[C@H]2C1 [cytisine, reference compound]
- Prostration EC50 [8]: 2
- IC50 ([4]; pH 7.5): 6 nM
- IC50 ([6]; pH 7.5): 0.1 nM

Compound: C[N+](C)(C)CCCCCC[N+](C)(C)C [hexamethonium]
- IC50 [12]: > 100000 nM
- Kd [12]: > 100000 nM

Compound: CCN(CC)CC(=O)Nc1c(C)cccc1C [lidocaine, reference compound]
- blockade of nicotine-induced prostration / antagonism, in words [5]: inactive

Compound: CN1C(CC(O)c2ccccc2)CCCC1CC(O)c1ccccc1 (stereo not shown) [lobelanidine, reference compound]
- IC50 [4]: 20 nM
- Blockade of (nicotine-induced prostration) EC50 [5]: 25
- IC50 [6]: 5 nM

Compound: CN1[C@@H](CC(=O)c2ccccc2)CCC[C@H]1CC(=O)c1ccccc1 [lobelanine, reference compound]
- IC50 [4]: 10 nM
- Blockade of (nicotine-induced prostration) EC50 [5]: 25
- IC50 [6]: 5 nM

Compound: CNC(=O)Oc1ccc2c(c1)[C@]1(C)CCN(C)[C@@H]1N2C [physostigmin, reference compound]
- blockade of nicotine-induced prostration / antagonism, in words [5]: inactive

Compound: CCN(CC)CCOC(=O)c1ccc(N)cc1 [procaine, reference compound]
- blockade of nicotine-induced prostration / antagonism, in words [5]: effectively block nicotine-induced prostration; also recorded: antagonists

Compound: CN(C)C(=O)Oc1cccc([N+](C)(C)C)c1 [prostigmin, reference compound]
- blockade of nicotine-induced prostration / antagonism, in words [5]: inactive

Compound: N--benzylpiperidyl-methylcarbamate
- IC50 [4]: > 100000 nM
- IC50 [6]: > 100000 nM

Compound: α-bungarotoxin
- IC50 ([9]; pH 7, read-out: [3H]-MCC IC50): > 100000 nM
- IC50 [12]: > 100000 nM
- Kd [12]: > 100000 nM
